Assay results reported in US12065429B2, “Small molecule modulators of IL-17” (LEO Pharma A/S, priority 2022, dated 2024).
Converted amounts (≈) assume the structure as drawn.

How the values were obtained:
recombinant IL-17AA = target: T1, recombinant IL-17AA (Homo sapiens, UniProt Q16552); experiment: Inhibition of recombinant IL-17AA-induced SEAP reporter gene activity in HEK-Blue IL-17 cells; format: cell-based; conditions: recombinant IL-17A 2 ng/ml, overnight
T1 construct: purchased R&D Systems 7955-IL
T1 sequence (Q16552 24-155): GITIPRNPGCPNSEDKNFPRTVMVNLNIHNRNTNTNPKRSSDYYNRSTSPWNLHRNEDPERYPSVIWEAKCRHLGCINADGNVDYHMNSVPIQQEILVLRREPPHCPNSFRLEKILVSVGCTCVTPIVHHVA
Protocol: Example 62: Inhibition of Recombinant IL-17AA-Induced SEAP Reporter Gene Activity in HEK-Blue™ IL-17 Cells
The assay was run according to the protocol provided by InvivoGen. Briefly, the HEK-Blue™ IL-17 cells (Invivogen, cat #hkb-il17) were suspended in the complete culture medium and seeded in a 96 well plate in a volume of 80 μl in a density of 50,000 cells per well the day before the assay. 10 μl of a solution of the test compounds were added in a serial gradient dilution to the cells followed by the addition of 10 μl IL-17A (R&D Systems cat #7955-IL) in a final concentration of 2 ng/ml. The plate was incubated overnight. The QUANTI-Blue™ solution was used to determine the SEAP activity; 180 μl QUANTI-Blue™ solution and 20 μl of the supernatant from the cell plate were mixed and incubated for 1 hour at 37 degrees Celsius. SEAP levels were measured using a spectrophotometer at 650 nm.

[1] = Human liver microsome (HLM) clearance assay; format: in vitro ADME; conditions: human liver microsomes 0.5 mg/mL, NADPH 1 mM, 0.5 μM compound, 40 min
Protocol: Example 63: Human Liver Microsome (HLM) Clearance Assay
Samples were taken out before addition of NADPH, and at 5, 10, 20 and 40 minutes thereafter and protein precipitation using cold acetonitrile with added internal standard was performed prior to centrifugation and sample analysis using compound specific LCMS/MS methods. Control incubations in buffer and without NADPH were performed in the same manner. Compound depletion was determined and apparent clearance (CLapp) was calculated.

Solubility assay = format: physicochemical; conditions: 0.067 M phosphate buffer pH 6.5, 24 hours shaking, from 10 mM DMSO stock; for solubility at 24 h: aqueous buffer, kinetic from dmso stock
Protocol: After centrifugation, the supernatant was analyzed by HPLC-UV. The solubility was defined as the concentration of the test substance in the selected solvent. It was determined by correlation with an external standard calibration curve.

Row | SMILES | EC50 (recombinant IL-17AA) [nM] | HLM Clapp [1] [mL/min/kg] | solubility at 24 h (Solubility assay) [µg/mL] | Solubility at pH 6.5 (Solubility assay) [μg/mL]
1 | Cc1cc[n+]([O-])c(C)c1-c1ccc(NC(=O)[C@@H](NC(=O)c2ccnn2C(C)C)C(C2CC2)C2CC2)nc1Cl (single isomer, unassigned) [Example 56] | 4.6 | 16 | < 1 | 
2 | CC(C)n1nccc1C(=O)N[C@H](C(=O)Nc1ccc(-c2c[n+]([O-])ccc2C(F)F)c(F)n1)C(C1CC1)C1CC1 [Example 51, N-[(1S)-1-(dicyclopropylmethyl)-2-[[5-[4-(difluoromethyl)-1-oxido-pyridin-1-ium-3-yl]-6-fluoro-2-pyridyl]amino]-2-oxo-ethyl]-2-isopropyl-pyrazole-3-carboxamide] |  | <8 | 25 (≈ 46.1 µM) | 
3 | Cc1cc[n+]([O-])c(C)c1-c1ccc(NC(=O)[C@@H](NC(=O)c2ccnn2C(C)C)C(C2CC2)C2CC2)nc1Cl (single isomer, unassigned) [Example 57] | 740 | 18 |  | <1
4 | CC(C)n1nccc1C(=O)N[C@H](C(=O)Nc1ccc(-c2ccc[n+]([O-])c2C2CC2)c(F)n1)C(C1CC1)C1CC1 [Example 7, N-[(1S)-2,2-dicyclopropyl-1-[[5-(2-cyclopropyl-1-oxido-pyridin-1-ium-3-yl)-6-fluoro-2-pyridyl]carbamoyl]ethyl]-2-isopropyl-pyrazole-3-carboxamide] |  | <8 | 38 (≈ 71.3 µM) | 
5 | COc1cc(-c2ccc(NC(=O)[C@@H](NC(=O)c3ccnn3C(C)C)C(C3CC3)C3CC3)nc2F)c(C)[n+]([O-])c1 [Example 1, N-[(1S)-1-(dicyclopropylmethyl)-2-[[6-fluoro-5-(5-methoxy-2-methyl-1-oxido-pyridin-1-ium-3-yl)-2-pyridyl]amino]-2-oxo-ethyl]-2-isopropyl-pyrazole-3-carboxamide] | 11 | 12 | 29 (≈ 54 µM) | 
6 | Cc1c[n+]([O-])cc(-c2ccc(NC(=O)[C@@H](NC(=O)c3ccnn3C(C)C)C(C3CC3)C3CC3)nc2F)c1C [Example 52, N-[(1S)-1-(dicyclopropylmethyl)-2-[[5-(4,5-dimethyl-1-oxido-pyridin-1-ium-3-yl)-6-fluoro-2-pyridyl]amino]-2-oxo-ethyl]-2-isopropyl-pyrazole-3-carboxamide] |  | <8 | 4 (≈ 7.68 µM) | 
7 | Cc1c(-c2ccc(NC(=O)[C@@H](NC(=O)c3ccnn3C(C)C)C(C3CC3)C3CC3)nc2Cl)cc(F)c[n+]1[O-] [Example 19, N-[(1S)-1-[[6-chloro-5-(5-fluoro-2-methyl-1-oxido-pyridin-1-ium-3-yl)-2-pyridyl]carbamoyl]-2,2-dicyclopropyl-ethyl]-2-isopropyl-pyrazole-3-carboxamide] |  | <8 | 18 (≈ 33.3 µM) | 
8 | Cc1c(-c2ccc(NC(=O)[C@@H](NC(=O)c3ccnn3C(C)C)C(C3CC3)C3CC3)nc2F)cc(S(C)(=O)=O)c[n+]1[O-] [Example 58, N-[(1S)-1-(dicyclopropylmethyl)-2-[[6-fluoro-5-(2-methyl-5-methylsulfonyl-1-oxido-pyridin-1-ium-3-yl)-2-pyridyl]amino]-2-oxo-ethyl]-2-isopropyl-pyrazole-3-carboxamide] | 100 | 10 | 14 (≈ 23.9 µM) | 
9 | CCc1c(-c2ccc(NC(=O)[C@@H](NC(=O)c3ccnn3C(C)C)C(C3CC3)C3CC3)nc2F)cc(OC)c[n+]1[O-] [Example 60, N-[(1S)-1-(dicyclopropylmethyl)-2-[[6-fluoro-5-(5-methoxy-2-ethyl-1-oxido-pyridin-1-ium-3-yl)-2-pyridyl]amino]-2-oxo-ethyl]-2-isopropyl-pyrazole-3-carboxamide] | 31 |  |  | 
10 | Cc1c(-c2ccc(NC(=O)[C@@H](NC(=O)c3ccnn3C(C)C)C(C3CC3)C3CC3)nc2F)cc(OC(F)F)c[n+]1[O-] [Example 8, N-[(1S)-1-(dicyclopropylmethyl)-2-[[5-[5-(difluoromethoxy)-2-methyl-1-oxido-pyridin-1-ium-3-yl]-6-fluoro-2-pyridyl]amino]-2-oxo-ethyl]-2-isopropyl-pyrazole-3-carboxamide] |  | 8 | 8 (≈ 14 µM) | 
11 | Cc1cc(-c2ccc(NC(=O)[C@@H](NC(=O)c3ccnn3C(C)C)C(C3CC3)C3CC3)nc2F)c(C)[n+]([O-])c1 [Example 3, N-[(1S)-1-(dicyclopropylmethyl)-2-[[5-(2,5-dimethyl-1-oxido-pyridin-1-ium-3-yl)-6-fluoro-2-pyridyl]amino]-2-oxo-ethyl]-2-isopropyl-pyrazole-3-carboxamide] | 17 | <8 | 45 (≈ 86.4 µM) | 
12 | Cc1cc[n+]([O-])c(C)c1-c1ccc(NC(=O)[C@@H](NC(=O)c2ccnn2C(C)C)C(C2CC2)C2CC2)nc1F [Example 4, N-[(1S)-1-(dicyclopropylmethyl)-2-[[5-(2,4-dimethyl-1-oxido-pyridin-1-ium-3-yl)-6-fluoro-2-pyridyl]amino]-2-oxo-ethyl]-2-isopropyl-pyrazole-3-carboxamide] |  | 9 | 74 (≈ 142 µM) | 
13 | Cc1c(-c2ccc(NC(=O)[C@@H](NC(=O)c3ccnn3C(C)C)C(C3CC3)C3CC3)nc2F)c(C(F)(F)F)cc[n+]1[O-] (single isomer, unassigned) [Example 54] |  | 63 | < 1 | 
14 | CC(C)n1nccc1C(=O)N[C@H](C(=O)Nc1ccc(-c2c[n+]([O-])cc(F)c2C(F)(F)F)c(F)n1)C(C1CC1)C1CC1 [Example 50, N-[(1S)-1-(dicyclopropylmethyl)-2-[[6-fluoro-5-[5-fluoro-1-oxido-4-(trifluoromethyl)pyridin-1-ium-3-yl]-2-pyridyl]amino]-2-oxo-ethyl]-2-isopropyl-pyrazole-3-carboxamide] |  | 10 | < 1 | 
15 | CC(C)n1nccc1C(=O)N[C@H](C(=O)Nc1ccc(-c2c[n+]([O-])ccc2C(F)(F)F)c(F)n1)C(C1CC1)C1CC1 [Example 6, N-[(1S)-1-(dicyclopropylmethyl)-2-[[6-fluoro-5-[1-oxido-4-(trifluoromethyl)pyridin-1-ium-3-yl]-2-pyridyl]amino]-2-oxo-ethyl]-2-isopropyl-pyrazole-3-carboxamide] |  | 14 | 5 (≈ 8.92 µM) | 
16 | Cc1c(-c2ccc(NC(=O)[C@@H](NC(=O)c3ccnn3C(C)C)C(C3CC3)C3CC3)nc2F)cc(C#N)c[n+]1[O-] [Example 59, N-[(1S)-1-[[5-(5-cyano-2-methyl-1-oxido-pyridin-1-ium-3-yl)-6-fluoro-2-pyridyl]carbamoyl]-2,2-dicyclopropyl-ethyl]-2-isopropyl-pyrazole-3-carboxamide] | 46 | <9 | 29 (≈ 54.6 µM) | 
17 | Cc1cc(-c2ccc(NC(=O)[C@@H](NC(=O)c3ccnn3C(C)C)C(C3CC3)C3CC3)nc2Cl)c(C)[n+]([O-])c1 [Example 18, N-[(1S)-1-[[6-chloro-5-(2,5-dimethyl-1-oxido-pyridin-1-ium-3-yl)-2-pyridyl]carbamoyl]-2,2-dicyclopropyl-ethyl]-2-isopropyl-pyrazole-3-carboxamide] |  | <8 | 26 (≈ 48.4 µM) | 
18 | Cc1c(-c2ccc(NC(=O)[C@@H](NC(=O)c3ccnn3C(C)C)C(C3CC3)C3CC3)nc2F)ccc[n+]1[O-] [Example 16, N-[(1S)-1-(dicyclopropylmethyl)-2-[[6-fluoro-5-(2-methyl-1-oxido-pyridin-1-ium-3-yl)-2-pyridyl]amino]-2-oxo-ethyl]-2-isopropyl-pyrazole-3-carboxamide] |  | <8 | 60 (≈ 118 µM) | 
19 | Cc1c(-c2ccc(NC(=O)[C@@H](NC(=O)c3ccnn3C(C)C)C(C3CC3)C3CC3)nc2F)c(C(F)(F)F)cc[n+]1[O-] (single isomer, unassigned) [Example 55] |  | 41 |  | <1
